Experimental data from patent US7348322B2, “Glucocorticoid receptor modulators as antiinflammatory agents” (Roche Palo Alto LLC, priority 2005, dated 2008).

Each molecule was assayed against T1, Human recombinant purified glucocorticoid receptor (Homo sapiens, UniProt P04150) (assay: Glucocorticoid receptor competitive binding assay (3H-dexamethasone)). Conditions: competition with 2 nM 3H-Dexamethasone, 1 nM GR, 4° C. overnight; read-out: Binding Affinity Ki.
T1 sequence (P04150 1-777): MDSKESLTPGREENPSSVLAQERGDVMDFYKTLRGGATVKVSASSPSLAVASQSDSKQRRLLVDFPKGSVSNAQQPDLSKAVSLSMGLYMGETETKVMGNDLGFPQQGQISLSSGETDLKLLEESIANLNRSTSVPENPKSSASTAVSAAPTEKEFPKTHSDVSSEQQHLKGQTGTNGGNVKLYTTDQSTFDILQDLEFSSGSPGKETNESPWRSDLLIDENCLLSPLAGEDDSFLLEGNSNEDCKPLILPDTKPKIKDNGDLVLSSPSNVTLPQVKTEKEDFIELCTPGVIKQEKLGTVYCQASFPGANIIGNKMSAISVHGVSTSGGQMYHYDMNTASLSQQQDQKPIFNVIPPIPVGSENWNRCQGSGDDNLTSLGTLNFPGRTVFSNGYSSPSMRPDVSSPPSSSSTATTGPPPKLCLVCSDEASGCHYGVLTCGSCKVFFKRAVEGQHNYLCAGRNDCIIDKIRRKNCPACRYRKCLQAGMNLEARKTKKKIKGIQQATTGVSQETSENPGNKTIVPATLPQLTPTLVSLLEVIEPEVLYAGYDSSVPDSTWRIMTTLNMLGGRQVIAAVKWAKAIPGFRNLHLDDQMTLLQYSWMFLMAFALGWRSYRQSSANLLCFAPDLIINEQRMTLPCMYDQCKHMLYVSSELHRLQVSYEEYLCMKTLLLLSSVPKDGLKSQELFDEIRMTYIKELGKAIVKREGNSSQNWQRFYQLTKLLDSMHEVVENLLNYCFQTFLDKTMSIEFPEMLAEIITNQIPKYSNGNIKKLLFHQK
Description: The affinity of glucocorticoid receptor antagonists for the glucocorticoid receptor was determined in competitive binding assays by the ability of the antagonist to compete with tritiated dexamethasone.
All assay steps were performed on ice in 96-well plates. Binding buffer contained 10 mM potassium phosphate pH 7.4, 20 mM Na2Mo4, 100 μM EDTA, 2% DMSO, and 5 mM DTT. Human recombinant purified glucocorticoid receptor was used at 1 nM. Compounds tested had up to 2% DMSO final concentration. Non-specific binding condition was 1 μM dexamethasone. The radioligand used for the competition assay was 2 nM ^3H-Dexamethasone (83 Ci/mmol stock solution). Buffer, compounds or vehicles, GR, and radioligand were incubated at 4° C. overnight. Unifilter GF/B 96-well filter plates were treated with 0.5% PEI after incubation. Samples were transferred to filter plates by a cell harvester. Filter plates were washed five times with 50 mM Tris pH 7.5 and 5 mM EDTA wash buffer. Samples were dried at 65° C. for about 1 hr. Scintillation fluid was added to filter plates at 50 μL/ well and ^3H cpm were measured on the TopCount scintillation counter.

First: O=C(CC1(c2ccccc2C(F)(F)F)CCC1)C(=O)Nc1cccc(-c2ccno2)c1 [Example 6, N-(3-Isoxazol-5-yl-phenyl)-2-oxo-3-[1-(2-trifluoromethyl-phenyl)-cyclobutyl]-propionamide]
Second: O=C(CC1(c2ccccc2C(F)(F)F)CCC1)C(=O)Nc1ccc(-c2cnco2)cc1 [Example 5, N-(4-Oxazol-5-yl-phenyl)-2-oxo-3-[1-(2-trifluoromethyl-phenyl)-cyclobutyl]-propionamide]
The Ki of the first is 3.3-fold higher: 2400 nM for the first, 723 nM for the second. The second binds more tightly here.

First: Cc1noc(=O)c2ccc(NCC(=O)CC3(c4ccccc4C(F)(F)F)CCC3)cc12 [Example 1, 4-Methyl-6-{2-oxo-3-[1-(2-trifluoromethyl-phenyl)-cyclobutyl]-propylamino}-benzo[d][1,2]oxazin-1-one]
Second: Cc1noc(=O)c2ccc(NC/C(CC3(c4ccccc4C(F)(F)F)CCC3)=N\O)cc12 [Example 2, 1-(4-Methyl-1-oxo-1H-benzo[d][1,2]oxazin-6-ylamino)-3-[1-(2-trifluoromethyl-phenyl)-cyclobutyl]propan-2-one oxime]
The Ki of the first is 4.6-fold higher: 405 nM for the first, 89 nM for the second. The second binds more tightly here.

Compared with `O/N=C(\CNc1cccc(-c2cnco2)c1)CC1(c2ccccc2C(F)(F)F)CCC1` [Example 3, 1-(3-Oxazol-5-yl-phenylamino)-3-[1-(2-trifluoromethyl-phenyl)-cyclobutyl]-propan-2-one oxime], `ON=C(CNc1ccc(-c2cnco2)cc1)CC1(c2ccccc2C(F)(F)F)CCC1` (racemic) [Example 4, 1-(4-Oxazol-5-yl-phenylamino)-3-[1-(2-trifluoromethyl-phenyl)-cyclobutyl]-propan-2-one oxime] is 2.5-fold lower in Ki: 2100 nM for the first, 851 nM for the second. The second binds more tightly here.
